Key:
Staphylococcus aureus = assay: Spheroplasting activities; format: cell-based; conditions: Luria broth with 0.3M sucrose, 90 minutes, phase contrast microscope
Protocol: Aliquots (100 μl) of an exponential phase culture(A600,0.05) grown in Luria broth supplemented with 0.3M concentration of sucrose were dispensed into test tubes containing different concentration of Compound 1 and 1 μl/ml ampicillin as positive control. The tubes were then incubated at 30° C. with shaking at 140 rpm. After 90 minutes, the cells were examined by phase contrast microscope for any morphological changes or for the presence of spheroplast. To confirm the osmotic fragility of the spheroplast the lytic effect of 2-3 μl of water added under the cover slip was tested.

[1] = system: Staphylococcus aureus (ATCC33591); assay: Time kill experiment; conditions: at two and four times the MIC

| Structure (SMILES) | formation of osmotically fragile spheroplasts (Staphylococcus aureus) | course of viable bacterial cell count [1] |
| --- | --- | --- |
| CC1(C)S[C@@H]2[C@H](NC(=O)[C@H](N)c3ccccc3)C(=O)N2[C@H]1C(=O)O [ampicillin, reference compound] | observed | decreased gradually |
| CN[C@H](CC(C)C)C(=O)N[C@H]1C(=O)N[C@@H](CC(N)=O)C(=O)N[C@H]2C(=O)N[C@H]3C(=O)N[C@H](C(=O)N[C@H](C(=O)O)c4cc(O)cc(O)c4-c4cc3ccc4O)[C@H](O)c3ccc(c(Cl)c3)Oc3cc2cc(c3O[C@@H]2O[C@H](CO)[C@@H](O)[C@H](O)[C@H]2O[C@H]2C[C@](C)(N)[C@H](O)[C@H](C)O2)Oc2ccc(cc2Cl)[C@H]1O [vancomycin, reference compound] |  | decreased gradually |

Reference: patent US20080090900A1, “ANTIBIOTIC BUSHRIN” (University of Karachi, priority 2006, published 2008)
